Patent US7807368B2, “Cyclin-dependent kinase inhibitors as targets for opiod growth factor treatment” (priority 2006, dated 2010)

Key:
Format in all cases: cell-based, human
CAL-27 cells = test: Growth curves of CAL-27 cells transfected with p16 siRNA
Procedure: The SCC-1 (UM-SCC-1) cell line was obtained from the University of Michigan Cancer Research Laboratory, and CAL-27 and SCC-4 cells were obtained from the American Type Culture Collection (Manassas, Va.). SCC-1 and CAL-27 cells were cultured in DMEM media, whereas SCC-4 cells were grown in 1:1 Hams F-12 DMEM media. All media was supplemented with 10% fetal bovine serum (HyClone, Logan, Utah), 1.2% sodium bicarbonate, and 5000 units/ml penicillin, 5 μg/ml streptomycin and 10 μg/ml neomycin. OGF was purchased from Sigma-Aldrich (St. Louis, Mo.), dissolved in sterile water, and used at a final concentration of 10^−6 M.
The p16-targeted siRNAs (antisense:5′ […]-3′; sense (SEQ ID NO:5): 5′ […]-3′(SEQ ID NO:6) were obtained as ready-annealed, purified duplex probes (Invitrogen, Carlsbad, Calif.). For transfection, 2×10^5 cells per well were seeded in 6-well plates containing 1 ml of serum-free media without antibiotics. In each well, 20 nM of p16-siRNA or control siRNA solutions in serum-free media were added. Cells were incubated for 4 h at 37° C. prior to the addition of OGF. Cultures were incubated for additional 20 h, and then 1 ml fresh complete media either lacking or containing OGF was added. At the indicated time points, cells were collected for growth curves or Western blotting. Three or more independent experiments were conducted. The control siRNAs were purchased from Ambion.

Cdk4 kinase activity = test: Immunoprecipitation and Rb kinase assay (Cdk4 kinase activity) in SCC-1 cells
Procedure: (§1) To quantify expression levels or kinase activity, the optical density of each band was determined by densitometry and analyzed by QuickOne (Bio-Rad Laboratories). Each value was normalized to β-actin from the same blot. To report the changes due to OGF treatment, the fold increase was calculated by dividing the normalized value from the OGF treated samples by the normalized value of control samples at each time point; thus, increases due to OGF have values greater than one, and decreases due to OGF have values less than one.
Immunoprecipitation and Rb kinase assay. For immunoprecipitating protein complexes, cell extracts were prepared as follows: 2×10^6 cells per sample were rinsed in cold PBS followed by lysis in 100 μl NP40 immunoprecipitation buffer (1% NP-40, 50 mM Tris-HCI (pH7.4), 150 mM NaCl, 1 mM EDTA, 10 mM NaF, 2 μg/ml antipain, 1 mM sodium orthovanidate, 2 μg/ml aprotinin, 2 μg/ml leupeptin, 1 μg/ml pepstatin A, 1 μM okadaic acid, 1 mM PMSF, 1 mM dithiothreitol (DTT). For each immunoprecipitation reaction mixture, a total of 500 μg of protein extract was used. The lysates were then subjected to immunoprecipitation using 10 μl polyclonal antibody against Cdk4 prebound with agarose conjugate (sc-601 AC, Santa Cruz) for 60 min at 4° C. Then immunoprecipitates were mixed with kinase buffer (25 mM HEPES, pH7.4, 10 mM MgCl2), 5 μCi γ^32P-ATP, and Rb(769-921) (sc-4112, Santa Cruz) as the substrate for Cdk4. After incubation for 30 min at 30° C., with occasional mixing, the reaction was stopped by the addition of 2× sample loading buffer (0.5 M Tris-HCl, pH 6.8, 4.4% (w/v) SDS, 20% (v/v) glycerol, 2% (v/v) 2-mercaptoethanol, and bromophenol blue in distilled/deionized water). Proteins in the reaction mixture were separated by a 10% SDS-PAGE gel. The Cdk4 kinase activity pattern was visualized by autoradiography of phosphorylated Rb.

Rb protein = test: Western blot of Rb and phospho-Rb in synchronized BxPC-3 cells
Procedure: Synchronized cells (2×10^6) from each treatment were solubilized in 200 μl RIPA buffer (1×PBS, 10 μM IGEPAL, 1 mg/ml SDS, 5 mg/ml deoxycholic acid), containing protease and phosphatase inhibitors (2 μg/ml aprotinin, 3 mg/ml phenylmethyl sulfonyl fluoride, 1 mM sodium orthovanidate, 1 μM okadaic acid). Total protein concentrations were measured using the DC protein assay kit (Bio-Rad Laboratories, Hercules, Calif.). Equal amounts of protein (40 μg) were subjected to 10% SDS-PAGE followed by transfer of proteins onto polyvinylidene difluoride (Millipore, Billerica, Mass.) using standard protocols.
The following antibodies were purchased from commercial sources: phospho-Rb (Ser795), phospho-Rb (Ser807/811) (Cell Signaling Technology, Beverly, Mass.); Cdk2, p57 (Santa Cruz Biotechnology, Santa Cruz, Calif.); p21, p27, total Rb (BD PharMingen, San Diego, Calif.); β-actin (Clone AC-15, Sigma-Aldrich).
Membranes were probed with secondary anti-rabbit or anti-mouse horseradish peroxidase-conjugated antibodies (GE Healthcare-Amersham Biosciences, Piscataway, N.J.), and developed using a chemiluminescence Western blotting detection system.
To determine equal loading of total protein samples, blots were re-probed with monoclonal antibody against β-actin at a dilution of 1:2000. If necessary, membranes were processed in stripping buffer (62.5 mM Tris-HCI and 100 mM β-mercaptoethanol/2% SDS, pH 6.7) at 50° C. before being re-probed.
as §1, with “treatment, we calculated” for “treatment,”, “increase” for “increase was calculated”, “one. For all Western blot analyses, 3 or more independent experiments were performed.” for “one.”

Substance: [Met^5]-enkephalin [OGF]
- effect on growth of cells lacking p16 (CAL-27 cells): no inhibitory effects
- Cdk4 kinase activity vs control cells at each respective time (Cdk4 kinase activity; OGF for 3, 6, 9, or 12 h (FIG. 1)): differed significantly
- Cdk4 kinase activity relative to controls (Cdk4 kinase activity; OGF for 6, 9, and 12 h): marked decrease
- Cdk4 kinase activity relative to controls (Cdk4 kinase activity; OGF for 3 h): transient increase
- level of phospho-Rb (Ser795) (Rb protein; 15, 18, and 21 hours, 10^-6 M OGF, significant at 21 hours (p<0.01)): decreased
- phospho-Rb (pSer807/811) levels (Rb protein; OGF treatment, Western blot): did not alter
- Expression of total Rb protein (Rb protein; after 21 hours of OGF treatment): not decreased
